ChEMBL document CHEMBL1201862, “PubChem BioAssay data set” (2004)
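All cell lines were grown in 96-well plates and treated with compound for 48 hours. GI50 = concentration required for 50% inhibition of growth.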 Active and inactive are the calls of the source. No stated cut-off is given here; in the data, active = GI50 up to about 1.1 µM and inactive = higher.

Assays:
Test in all cases: NCI anticancer screen, dose series, 48 h
[1] = system: 786-0
[2] = system: A498
[3] = system: A549
[4] = system: ACHN
[5] = system: CAKI-1
[6] = system: CCRF-CEM
[7] = system: COLO 205
[8] = system: DLD-1
[9] = system: DMS-114
[10] = system: DMS-273
[11] = system: EKVX
[12] = system: HCC 2998
[13] = system: HCT-15
[14] = system: HL-60
[15] = system: HOP-18
[16] = system: HOP-62
[17] = system: HOP-92
[18] = system: HT-29
[19] = system: IGROV-1
[20] = system: K562
[21] = system: KM-20L2
[22] = system: KM12
[23] = system: LOX IMVI
[24] = system: M19-MEL
[25] = system: MOLT-4
[26] = system: Malme-3M
[27] = system: NCI-H226
[28] = system: NCI-H23
[29] = system: NCI-H460
[30] = system: NCI-H522
[31] = system: OVCAR-3
[32] = system: OVCAR-5
[33] = system: OVCAR-8
[34] = system: RPMI-8226
[35] = system: RXF 393
[36] = system: SF-268
[37] = system: SF-295
[38] = system: SF-539
[39] = system: SK-MEL-28
[40] = system: SK-MEL-2
[41] = system: SK-MEL-5
[42] = system: SK-OV-3
[43] = system: SN12C
[44] = system: SNB-75
[45] = system: SNB-78
[46] = system: SW-620
[47] = system: TK-10
[48] = system: U-251
[49] = system: UACC-257
[50] = system: UACC-62
[51] = system: UO-31
[52] = system: HCT-116
[53] = system: M14
[54] = system: LXFL 529
[55] = system: OVCAR-4
[56] = system: SR
[57] = system: SNB-19

Measured: GI50

Cc1ccc(/C=C/C(=O)c2sc(-n3nc(-c4ccccc4)cc3-c3ccccc3)nc2C)cc1
57.7 µM: [13]
inactive: [1] > 100 µM | [2] > 100 µM | [3] > 100 µM | [4] 65.8 µM | [5] 12.4 µM | [6] > 100 µM | [7] > 100 µM | [8] > 100 µM | [9] 10.6 µM | [10] > 100 µM | [11] 34.8 µM | [12] 60.8 µM | [14] 36.4 µM | [15] > 100 µM | [16] > 100 µM | [17] > 100 µM | [18] 55 µM | [19] > 100 µM | [20] 77.8 µM | [21] > 100 µM | [22] > 100 µM | [23] > 100 µM | [24] > 100 µM | [25] 8.39 µM | [26] > 100 µM | [27] > 100 µM | [28] > 100 µM | [29] > 100 µM | [30] 87.5 µM | [31] > 100 µM | [32] > 100 µM | [33] > 100 µM | [34] > 100 µM | [35] > 100 µM | [36] > 100 µM | [37] > 100 µM | [38] > 100 µM | [39] > 100 µM | [40] > 100 µM | [41] 71.1 µM | [42] > 100 µM | [43] > 100 µM | [44] 4.26 µM | [45] > 100 µM | [46] > 100 µM | [47] > 100 µM | [48] > 100 µM | [49] > 100 µM | [50] > 100 µM | [51] > 100 µM

O=C1c2cccc(NCCCNCCO)c2C(=O)c2cccc(NCCCNCCO)c21
inactive: [1] 1.96 µM | [2] 2.17 µM | [3] 1.99 µM | [4] 1.59 µM | [6] 1.34 µM | [7] 1.36 µM | [8] 3.13 µM | [10] 2.02 µM | [11] 2.32 µM | [52] 1.56 µM | [14] 1.36 µM | [15] 2.67 µM | [16] 2.43 µM | [18] 1.41 µM | [19] 2.56 µM | [21] 2.34 µM | [22] 1.92 µM | [23] 2.1 µM | [53] 2.09 µM | [25] 1.35 µM | [28] 2.99 µM | [29] 1.68 µM | [31] 2.53 µM | [32] 2.65 µM | [33] 1.86 µM | [34] 1.97 µM | [35] 2.95 µM | [38] 1.86 µM | [39] 1.96 µM | [40] 1.92 µM | [41] 1.78 µM | [43] 1.26 µM | [45] 2.06 µM | [46] 1.46 µM | [47] 3 µM | [49] 3.56 µM | [50] 1.76 µM | [51] 9.68 µM
active: [12] 1.08 µM
7.31 µM: [13]

O=C(O/N=C1/CCC/C1=C\c1ccccc1)c1ccccc1
inactive: [1] > 100 µM | [2] > 100 µM | [3] > 100 µM | [4] > 100 µM | [5] > 100 µM | [6] 48.8 µM | [7] > 100 µM | [8] 43.8 µM | [9] 35 µM | [10] > 100 µM | [11] 29.8 µM | [52] > 100 µM | [14] 37.8 µM | [15] > 100 µM | [16] > 100 µM | [17] > 100 µM | [18] 40.7 µM | [19] > 100 µM | [20] 38.7 µM | [21] 58.3 µM | [22] > 100 µM | [23] 61.8 µM | [54] 28.9 µM | [53] > 100 µM | [25] 27.4 µM | [26] > 100 µM | [27] > 100 µM | [28] > 100 µM | [29] > 10 µM | [30] 53 µM | [31] > 100 µM | [55] > 100 µM | [32] > 100 µM | [33] 88.7 µM | [34] 50.5 µM | [35] > 100 µM | [36] 38.7 µM | [37] > 100 µM | [38] > 100 µM | [39] > 100 µM | [40] > 100 µM | [41] 44.6 µM | [42] > 100 µM | [43] > 100 µM | [44] 47.5 µM | [45] > 100 µM | [56] 44.4 µM | [46] > 100 µM | [47] > 100 µM | [48] > 100 µM | [49] > 100 µM | [50] > 100 µM
59.6 µM: [13]

Cc1cc(O)nc(NN2C(Cl)C(=O)C2c2cccc([N+](=O)[O-])c2)n1 (stereo not given)
15.1 µM: [13]
inactive: [3] 76 µM | [4] 29.2 µM | [6] 3.52 µM | [7] 22.7 µM | [9] 21.8 µM | [10] 15.6 µM | [11] 63.4 µM | [12] 18.5 µM | [52] 19.7 µM | [14] 13.5 µM | [15] 18.5 µM | [16] 31.4 µM | [17] 19.3 µM | [18] 19.6 µM | [19] > 10 µM | [20] 18.3 µM | [21] 27.3 µM | [22] 25.9 µM | [23] 12.3 µM | [54] 16 µM | [53] 17.3 µM | [24] 19.5 µM | [25] 14.3 µM | [27] 12.3 µM | [28] 20.7 µM | [29] 26.3 µM | [31] 14.8 µM | [55] 23.6 µM | [32] > 100 µM | [33] 34.8 µM | [34] 13.7 µM | [35] 10 µM | [36] 35.2 µM | [39] 17.1 µM | [40] 19 µM | [41] 17.5 µM | [43] 18.1 µM | [57] 44 µM | [44] 28 µM | [45] 32.2 µM | [56] 16.9 µM | [46] 35.1 µM | [47] 38.3 µM | [48] 20 µM | [49] 29 µM | [50] 19.4 µM | [51] 36.6 µM

CC(=O)Nc1ccc(-c2nnc(SCC(=O)Nc3cccc(C)c3)o2)cc1
8.97 µM: [13]
inactive: [1] 12.8 µM | [3] 21.3 µM | [4] 10.7 µM | [5] 16.7 µM | [6] 6.62 µM | [7] 14.8 µM | [8] 10.5 µM | [9] 2.34 µM | [10] 10.3 µM | [52] 11.8 µM | [14] 19.5 µM | [15] 16.1 µM | [16] 28.7 µM | [17] 13 µM | [18] 12.2 µM | [19] 11.7 µM | [20] 10.8 µM | [21] 10.2 µM | [22] 10.8 µM | [23] 3.43 µM | [54] 10.9 µM | [53] 13 µM | [24] 12.2 µM | [25] 4.84 µM | [26] 14.1 µM | [27] 14.4 µM | [28] 7.55 µM | [29] 15 µM | [30] 4.4 µM | [31] 11.7 µM | [55] 16 µM | [32] 13.4 µM | [33] 16.3 µM | [34] 13.8 µM | [35] 12.8 µM | [36] 24.5 µM | [37] 10.8 µM | [38] 14.5 µM | [39] 13.8 µM | [40] 12.5 µM | [41] 11.1 µM | [42] 25.8 µM | [43] 15.2 µM | [44] 19.5 µM | [45] 13.7 µM | [56] 4.93 µM | [46] 12.8 µM | [47] 15.8 µM | [48] 13.5 µM | [49] 12.3 µM | [50] 8.26 µM | [51] 13.2 µM
